Converted amounts (≈) assume the structure as drawn.
Experiments:
Assay type in all cases: cell-based
Escherichia coli SOL 90 = assay: MIC, in vitro dilution method, Escherichia coli SOL 90 (Table III); conditions: SOL90; Escherichia coli SOL 90; dilution method; read-out: MIC
Source text: (§1) The products of the invention have been studied as regards their pharmacological properties and, more especially, bacteriostatic action. This has been determined in vitro by the dilution method, and the study was on Gram negative strains.
(§2) Results, expressed in minimum inhibiting concentrations (MIC-- μg/ml), are collected in the following table (Table III).

Klebsiella RO 30 = assay: MIC, in vitro dilution method, Klebsiella RO 30 (Table III); conditions: RO30; Klebsiella RO 30; dilution method; read-out: MIC
Source text: as §1, §2

Enterobacter RO 154 = assay: MIC, in vitro dilution method, Enterobacter RO 154 (Table III); conditions: RO154; Enterobacter RO 154; dilution method; read-out: MIC
Source text: as §1, §2

Pseudomonas RL 112 = assay: MIC, in vitro dilution method, Pseudomonas RL 112 (Table III); conditions: RL112
Source text: as §1, §2

SMILES	MIC (Escherichia coli SOL 90)	MIC (Klebsiella RO 30)	MIC (Enterobacter RO 154)	MIC (Pseudomonas RL 112)
CC(C)(ON=C(C(=O)NC1C(=O)N2C(C(=O)O)=C(COC(=O)C3CCN(C(=O)CCN)CC3)C[S+]([O-])C12)c1csc(N)n1)C(=O)O (stereo not drawn) [42 782]	0.25 mg/L (≈ 0.366 µM)	0.125 mg/L (≈ 0.183 µM)	2 mg/L (≈ 2.93 µM)	4 mg/L (≈ 5.85 µM)
CC(C)(ON=C(C(=O)NC1C(=O)N2C(C(=O)O)=C(COC(=O)C3CCN(C(=O)CCCN)CC3)C[S+]([O-])C12)c1csc(N)n1)C(=O)O (stereo not drawn) [42 783]	0.25 mg/L (≈ 0.358 µM)	0.125 mg/L (≈ 0.179 µM)	2 mg/L (≈ 2.87 µM)	8 mg/L (≈ 11.5 µM)
CC(C)(ON=C(C(=O)NC1C(=O)N2C(C(=O)O)=C(COC(=O)C3CCC(N)CC3)C[S+]([O-])C12)c1csc(N)n1)C(=O)O (stereo not drawn) [42 811]	0.125 mg/L (≈ 0.199 µM)	0.125 mg/L (≈ 0.199 µM)	2 mg/L (≈ 3.19 µM)	4 mg/L (≈ 6.38 µM)
Cc1cc(NC(=O)CN)c(C)c(C(=O)OCC2=C(C(=O)O)N3C(=O)C(NC(=O)C(=NOC(C)(C)C(=O)O)c4csc(N)n4)C3[S+]([O-])C2)c1 (stereo not drawn) [42 814]	0.5 mg/L (≈ 0.708 µM)	0.25 mg/L (≈ 0.354 µM)	8 mg/L (≈ 11.3 µM)	8 mg/L (≈ 11.3 µM)
CC(C)(ON=C(C(=O)NC1C(=O)N2C(C(=O)O)=C(COC(=O)c3ccc(NC(=O)C4CCNCC4)cc3)C[S+]([O-])C12)c1csc(N)n1)C(=O)O (stereo not drawn) [42 815]	0.125 mg/L (≈ 0.171 µM)	0.25 mg/L (≈ 0.342 µM)	8 mg/L (≈ 10.9 µM)	8 mg/L (≈ 10.9 µM)
CC(N)C(=O)Nc1ccc(C(=O)OCC2=C(C(=O)O)N3C(=O)C(NC(=O)C(=NOC(C)(C)C(=O)O)c4csc(N)n4)C3[S+]([O-])C2)cc1 (stereo not drawn) [42 817]	0.125 mg/L (≈ 0.181 µM)	0.25 mg/L (≈ 0.361 µM)	4 mg/L (≈ 5.78 µM)	4 mg/L (≈ 5.78 µM)
CC(N)C(=O)Nc1ccc(C(=O)OCC2=C(C(=O)O)N3C(=O)C(NC(=O)C(=NOC4(C(=O)O)CCC4)c4csc(N)n4)C3[S+]([O-])C2)cc1 (stereo not drawn) [42 818]	0.125 mg/L (≈ 0.178 µM)	0.125 mg/L (≈ 0.178 µM)	4 mg/L (≈ 5.68 µM)	4 mg/L (≈ 5.68 µM)
Cc1cc(CN)ccc1C(=O)OCC1=C(C(=O)O)N2C(=O)C(NC(=O)C(=NOC(C)(C)C(=O)O)c3csc(N)n3)C2[S+]([O-])C1 (stereo not drawn) [42 848]	0.125 mg/L (≈ 0.193 µM)	0.125 mg/L (≈ 0.193 µM)	2 mg/L (≈ 3.08 µM)	4 mg/L (≈ 6.17 µM)
Cc1cc(CN)ccc1C(=O)OCC1=C(C(=O)O)N2C(=O)C(NC(=O)C(=NOC3(C(=O)O)CCC3)c3csc(N)n3)C2[S+]([O-])C1 (stereo not drawn) [42 849]	0.125 mg/L (≈ 0.189 µM)	0.125 mg/L (≈ 0.189 µM)	2 mg/L (≈ 3.03 µM)	4 mg/L (≈ 6.05 µM)
CC(N)C(=O)Nc1nc(C(=O)OCC2=C(C(=O)O)N3C(=O)C(NC(=O)C(=NOC(C)(C)C(=O)O)c4csc(N)n4)C3[S+]([O-])C2)cs1 (stereo not drawn) [42 857]	0.5 mg/L (≈ 0.716 µM)	1 mg/L (≈ 1.43 µM)	8 mg/L (≈ 11.4 µM)	8 mg/L (≈ 11.4 µM)
Cc1cc(C(=O)SCC2=C(C(=O)O)N3C(=O)C(NC(=O)C(=NOC(C)(C)C(=O)O)c4csc(N)n4)C3[S+]([O-])C2)ccc1CN (stereo not drawn) [compound 42661]	0.5 mg/L (≈ 0.752 µM)	0.25 mg/L (≈ 0.376 µM)	1 mg/L (≈ 1.5 µM)	8 mg/L (≈ 12 µM)
CC(C)(CN)C(=O)SCC1=C(C(=O)O)N2C(=O)C(NC(=O)C(=NOC(C)(C)C(=O)O)c3csc(N)n3)C2[S+]([O-])C1 (stereo not drawn) [compound 42663]	4 mg/L (≈ 6.49 µM)	1 mg/L (≈ 1.62 µM)	4 mg/L (≈ 6.49 µM)	8 mg/L (≈ 13 µM)
NCC(=O)Nc1ccc(C(=O)SCC2=C(C(=O)O)N3C(=O)C(NC(=O)C(=NOC4(C(=O)O)CCC4)c4csc(N)n4)C3[S+]([O-])C2)cc1 (stereo not drawn) [compound 42665]	0.5 mg/L (≈ 0.708 µM)	0.5 mg/L (≈ 0.708 µM)	2 mg/L (≈ 2.83 µM)	8 mg/L (≈ 11.3 µM)
NCC(=O)N1CCC(C(=O)SCC2=C(C(=O)O)N3C(=O)C(NC(=O)C(=NOC4(C(=O)O)CCC4)c4csc(N)n4)C3[S+]([O-])C2)CC1 (stereo not drawn) [compound 42674]	1 mg/L (≈ 1.43 µM)	0.5 mg/L (≈ 0.717 µM)	2 mg/L (≈ 2.87 µM)	8 mg/L (≈ 11.5 µM)
CC(C)(ON=C(C(=O)NC1C(=O)N2C(C(=O)O)=C(CSC(=O)c3cccc(NC(=O)CN)c3)C[S+]([O-])C12)c1csc(N)n1)C(=O)O (stereo not drawn) [compound 42685]	2 mg/L (≈ 2.88 µM)	1 mg/L (≈ 1.44 µM)	2 mg/L (≈ 2.88 µM)	8 mg/L (≈ 11.5 µM)
NCC(=O)Nc1cccc(C(=O)SCC2=C(C(=O)O)N3C(=O)C(NC(=O)C(=NOC4(C(=O)O)CCC4)c4csc(N)n4)C3[S+]([O-])C2)c1 (stereo not drawn) [compound 42686]	2 mg/L (≈ 2.83 µM)	1 mg/L (≈ 1.42 µM)	2 mg/L (≈ 2.83 µM)	8 mg/L (≈ 11.3 µM)
Cc1cc(CN)ccc1C(=O)SCC1=C(C(=O)O)N2C(=O)C(NC(=O)C(=NOC(C)(C)C(=O)O)c3csc(N)n3)C2[S+]([O-])C1 (stereo not drawn) [compound 42850]	0.5 mg/L (≈ 0.752 µM)	0.25 mg/L (≈ 0.376 µM)	2 mg/L (≈ 3.01 µM)	8 mg/L (≈ 12 µM)
Cc1cc(CN)ccc1C(=O)SCC1=C(C(=O)O)N2C(=O)C(NC(=O)C(=NOC3(C(=O)O)CCC3)c3csc(N)n3)C2[S+]([O-])C1 (stereo not drawn) [compound 42851]	0.5 mg/L (≈ 0.739 µM)	0.25 mg/L (≈ 0.369 µM)	1 mg/L (≈ 1.48 µM)	8 mg/L (≈ 11.8 µM)

From patent US4656166A, “Antibiotic compounds derived from cephalosporins, process for their production and pharmaceutical compositions” (Sanofi, priority 1983, dated 1987)
